Consider 10 compounds from patent US7060451B2, “Methods for screening GABA-modulatory compounds for specified pharmacological activities” (Neurogen Corporation, priority 1999, dated 2006).

Data set [1] deals with GABAA receptors (benzodiazepine site, Ro15-1788 binding sites), rat cortex. Briefly: Ro15-1788 competition binding assay, rat cortex membranes. The following applies: displacement of 3H Ro15-1788, read-out: Ro15-1788 binding, K1. The protocol:
Rat cortex membranes are prepared by homogenizing one or two previously frozen rat cortexes in 30 ml of 25 mM Tris Buffer, pH 7.4. The homogenate is centrifuged for 10 minutes at 500× g. The supernatant is then transferred to a clean centrifuge tube and the pellet discarded. The supernatant is spun for 20 minutes at 48,000× g. The supernatant from this spin is discarded and the pellet is resuspended in 30 ml of 25 mM Tris Buffer, pH 7.4 and centrifuged for an additional 10 minutes at 48,000× g. The supernatant from the final spin is discarded and the membrane pellet is resuspended in 100 mL Tris buffer per gram of cortex used.
The cortex membrane preparation is used to perform either percent inhibition or competition binding assays. In order to determine percent inhibition 300 μl of resuspended membranes are mixed with 200 μl ^3H labeled Ro15-1788 (final concentration 2.5 nM) and incubated for 1 hour on ice in the presence of 2 μl test compound in DMSO (final concentration 4 μM). Membranes are harvested onto untreated filtermats. The filtermats are dried and the ^3H Ro15-1788 signal is counted in a scintillation counter. Nonspecific binding is determined by displacement of ^3H Ro15-1788 with 10 μM Diazepam (RBI) or any other compound known to bind tightly at the benzodiazepine site.
K1 values are calculated according to the Cheng-Prussof equation.
On the technique in general: Displacement assays read how much labelled ligand stays bound in the presence of the test substance.

In data set [2] the target is α1β2γ2 GABAA subtype receptor (Homo sapiens, UniProt P14867+P18507). As to the kind of experiment: oocyte electrophysiology, two electrode voltage-clamp, potentiation of GABA current. The data set is classed as cell-based. The following applies: Xenopus oocytes, human subunits, GABA EC10; for Emax: read-out: oocyte electrophysiology maximum potentiation (%) α1β2γ2. The method, then:
(§1) Assays are carried out as described previously in White and Gurley, 1995 and White, et al., 1995. Xenopus laevis oocytes are enzymatically isolated and injected with non-polyadenylated cRNA for human derived α, β and γ GABAA subunits, respectively. In more preferred embodiments cRNA for the α1β2γ2, α2β3γ2, α3β3γ2, and α5β3γ2 subunit combinations are injected. Only one of these subunit combinations is injected per cell. For each subunit combination, sufficient message is injected to result in current amplitudes of >10 nA when 1 μM GABA is applied. Electrophysiological recordings are carried out using the two electrode voltage-clamp technique at a membrane holding potential of −70 mV.
(§2) Compounds are evaluated against a GABA concentration that evokes <10% (EC10) of the maximal evocable GABA current. Each oocyte is exposed to increasing concentrations of compound in order to evaluate a concentration/effect relationship.
(§3) Specificity of a compound for the Ro15-1788 site is determined following completion of the concentration/effect curve. After washing the oocyte sufficiently to remove previously applied compound, the oocyte is exposed to GABA and 1 μM Ro15-1788, followed by exposure to GABA, 1 μM Ro15-1788, and compound. Percent change due to addition of compound is calculated as described above. Any percent change observed in the presence of Ro15-1788 is subtracted from the percent changes in current amplitude observed in the absence of 1 μM Ro15-1788. These net values are used for the calculation of average activity and EC50 values.
(§4) To evaluate average activity and EC50 values, the concentration/effect data are averaged across cells and fit to the logistic equation. Average values are reported as mean ±standard error.

In data set [3] the target is α2β3γ2 GABAA subtype receptor (Homo sapiens, UniProt P18507+P47869). The data set is described as above. The data set is classed as cell-based. The following applies: Xenopus oocytes, human subunits, GABA EC10. The protocol:
as §1, §2, §3, §4

The target of data set [4] is α3β3γ2 GABAA subtype receptor (Homo sapiens, UniProt P18507+P34903). The description is as above. Particulars: Xenopus oocytes, human subunits, GABA EC10. The data set is classed as cell-based. The method, then:
as §1, §2, §3, §4

For data set [5], the target named is α5β3γ2 GABAA subtype receptor (Homo sapiens, UniProt P18507+P31644). The data set is described as above. The data set is classed as cell-based. The following applies: Xenopus oocytes, human subunits, GABA EC10; for Emax: read-out: oocyte electrophysiology maximum potentiation (%) α5β3γ2. The protocol: as §1, §2, §3, §4
In data set [6] the test system is rats. As to the kind of experiment: elevated plus maze. The data set is classed as in vivo. Particulars: rat, IV, statistically significant response (anxiolytic effect). The protocol: The elevated plus maze model capitalizes on rats' innate fear of open, elevated places. The test apparatus is an elevated plus maze consisting of two open arms and two closed arms. A rat will naturally chose to spend more time on the closed arms of the maze than on the open arms but that if an efficacious anxiolytic compound is administered to the rat prior to the test the amount it of time the rat spends in the open arms is increased.
Test compound is administered IV in a 50% PEG (polyethylene glycol) vehicle 5 minutes prior to the test session. A range of compound doses is typically used and 8-10 rats are tested at each dose. The rat is placed in the center of the maze facing one of the open arms. The animal's locomotion is tracked over a five minute test session using photocells interfaced to a computer. The computer measures the number of entries into each arm and the time spent on each arm. An anxiolytic effect in the elevated plus maze model is defined by an increase in the percentage of time spent on the open arms in compound versus vehicle treated animals.

Data set [7] has as its system rats. Briefly: spontaneous locomotor activity. The data set is classed as in vivo. Particulars: rat. The method, then: Spontaneous locomotor activity can be measured to determine sedative effects of compounds. Locomotor activity is measured in eight computerized Digiscan-16 Animal Activity Monitors (Omnitech Electronics, Columbus, Ohio) equipped with 48 infrared photocell emitters and detectors. Each box is constructed of Plexiglas sides and floor. Horizontal activity is detected by a set of horizontal sensors on the front to back walls and a second group of sensors on the side to side walls located 5 cm above the cage floor. Vertical activity is detected by a third set of sensors on the side to side walls located 13.5 cm above the cage floor. The rats are tested in the presence of white noise (62 dB) and red St light (60 watt).
Test compound is administered IV in a 50% PEG vehicle 5 minutes prior to the test session. A range of compound doses is typically used and 6 to 8 rats are tested at each dose. The animal's movement time, vertical activity, and total distance traveled are tracked over a 15 minute test session. A sedative, or hypnotic, effect in the spontaneous locomotor activity model is defined by a decrease in any two of these three measures relative to animals given vehicle alone.

Data set [8] concerns rats. As to the kind of experiment: step-down passive avoidance. Particulars: rat; for cognitive model (step-down passive avoidance), minimal efficacious dose: cognitive enhancement. The data set is classed as in vivo. The text has this: In step-down passive avoidance a rat is placed on a platform located in the center of an electrified grid floor that is contained within a large (45 cm×45 cm×50 cm) white translucent Plexiglas® enclosure. The natural inclination of the rat is to step off the platform and investigate its surroundings. […] Each time the animal steps off the platform it receives a mild foot shock of 2 mAmps×6 sec. Following each shock the animal is removed from the box, placed in its cage for a one minute inter-trial interval, and then returned to the platform. The latency to step down on each trial, the number of trials taken to reach criterion during training and the retention latency are collected.
Testing is conducted approximately 24 hrs. after training. Drug-free animals are placed on the platform in the box in which they will have been trained and the latency to step down onto the grid floor is recorded for one trial as a measure of memory retention.

The mark [9] stands for this setting: IV, hypnotic effect (Table VII).

Sequence of α5β3γ2 GABAA subtype receptor (P31644 32-462): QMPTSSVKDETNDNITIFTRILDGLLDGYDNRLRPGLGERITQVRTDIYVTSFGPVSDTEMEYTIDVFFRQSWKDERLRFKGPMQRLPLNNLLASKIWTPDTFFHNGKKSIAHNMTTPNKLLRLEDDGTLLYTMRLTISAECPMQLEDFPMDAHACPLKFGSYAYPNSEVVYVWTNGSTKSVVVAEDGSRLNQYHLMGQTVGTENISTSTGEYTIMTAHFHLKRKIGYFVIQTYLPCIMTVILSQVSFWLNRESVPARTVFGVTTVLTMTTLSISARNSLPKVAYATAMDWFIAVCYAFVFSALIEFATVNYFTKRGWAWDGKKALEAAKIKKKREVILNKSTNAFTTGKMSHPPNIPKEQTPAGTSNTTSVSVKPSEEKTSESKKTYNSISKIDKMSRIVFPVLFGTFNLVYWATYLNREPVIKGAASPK
Sequence of α5β3γ2 GABAA subtype receptor (P28472 26-473 partner): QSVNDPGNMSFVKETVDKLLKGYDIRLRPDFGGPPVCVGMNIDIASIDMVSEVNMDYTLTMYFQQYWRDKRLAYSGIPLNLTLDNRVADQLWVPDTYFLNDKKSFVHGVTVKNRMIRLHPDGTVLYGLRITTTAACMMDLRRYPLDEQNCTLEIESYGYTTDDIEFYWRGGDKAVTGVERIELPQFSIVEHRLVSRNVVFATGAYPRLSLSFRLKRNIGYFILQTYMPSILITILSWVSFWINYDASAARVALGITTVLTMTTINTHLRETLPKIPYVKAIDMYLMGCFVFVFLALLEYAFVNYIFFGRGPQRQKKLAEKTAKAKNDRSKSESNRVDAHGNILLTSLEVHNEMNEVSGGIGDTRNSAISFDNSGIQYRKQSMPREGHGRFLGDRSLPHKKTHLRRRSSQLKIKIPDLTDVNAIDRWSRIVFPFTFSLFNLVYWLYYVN
Sequence of α5β3γ2 GABAA subtype receptor (P18507 40-475): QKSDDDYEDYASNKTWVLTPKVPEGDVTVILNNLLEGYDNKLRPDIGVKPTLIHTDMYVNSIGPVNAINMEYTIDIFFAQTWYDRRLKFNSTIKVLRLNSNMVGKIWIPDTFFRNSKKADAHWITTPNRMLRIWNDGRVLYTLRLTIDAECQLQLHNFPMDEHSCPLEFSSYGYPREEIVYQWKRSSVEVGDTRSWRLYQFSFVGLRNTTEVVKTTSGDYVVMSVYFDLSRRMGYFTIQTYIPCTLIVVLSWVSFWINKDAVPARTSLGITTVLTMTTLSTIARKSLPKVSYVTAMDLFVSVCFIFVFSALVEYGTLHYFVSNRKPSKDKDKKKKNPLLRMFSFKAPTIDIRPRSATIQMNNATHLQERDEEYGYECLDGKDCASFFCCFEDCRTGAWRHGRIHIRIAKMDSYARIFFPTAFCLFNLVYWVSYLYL
Sequence of α3β3γ2 GABAA subtype receptor (P34903 29-492): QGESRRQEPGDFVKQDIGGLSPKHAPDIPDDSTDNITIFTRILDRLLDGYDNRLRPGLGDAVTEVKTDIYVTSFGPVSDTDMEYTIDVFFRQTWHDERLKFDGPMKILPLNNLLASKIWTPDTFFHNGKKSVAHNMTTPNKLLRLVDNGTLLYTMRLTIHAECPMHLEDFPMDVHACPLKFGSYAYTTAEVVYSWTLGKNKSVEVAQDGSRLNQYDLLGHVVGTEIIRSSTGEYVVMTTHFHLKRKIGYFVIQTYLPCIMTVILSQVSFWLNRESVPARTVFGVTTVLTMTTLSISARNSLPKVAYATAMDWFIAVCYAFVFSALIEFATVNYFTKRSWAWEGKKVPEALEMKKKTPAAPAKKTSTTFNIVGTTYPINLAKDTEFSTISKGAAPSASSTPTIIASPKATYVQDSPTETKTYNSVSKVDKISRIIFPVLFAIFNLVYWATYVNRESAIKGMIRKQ
Sequence of α3β3γ2 GABAA subtype receptor (P28472 26-473 partner): as the sequence (P28472 26-473 partner) above
Sequence of α3β3γ2 GABAA subtype receptor (P18507 40-475): as the sequence (P18507 40-475) above
Sequence of α2β3γ2 GABAA subtype receptor (P47869 29-451): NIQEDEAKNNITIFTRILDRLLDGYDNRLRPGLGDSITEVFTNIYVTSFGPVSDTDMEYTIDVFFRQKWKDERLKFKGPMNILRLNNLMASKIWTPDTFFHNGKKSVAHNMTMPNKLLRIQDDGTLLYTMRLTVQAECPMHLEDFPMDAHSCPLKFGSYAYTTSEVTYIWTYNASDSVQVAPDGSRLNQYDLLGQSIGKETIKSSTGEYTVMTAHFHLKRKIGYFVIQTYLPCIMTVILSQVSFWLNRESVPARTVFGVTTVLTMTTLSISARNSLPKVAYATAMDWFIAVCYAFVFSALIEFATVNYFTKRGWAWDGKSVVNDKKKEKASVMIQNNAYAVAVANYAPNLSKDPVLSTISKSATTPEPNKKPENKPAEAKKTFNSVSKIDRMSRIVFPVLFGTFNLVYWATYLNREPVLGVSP
Sequence of α2β3γ2 GABAA subtype receptor (P28472 26-473 partner): as the sequence (P28472 26-473 partner) above
Sequence of α2β3γ2 GABAA subtype receptor (P18507 40-475): as the sequence (P18507 40-475) above
Sequence of α1β2γ2 GABAA subtype receptor (P14867 28-456): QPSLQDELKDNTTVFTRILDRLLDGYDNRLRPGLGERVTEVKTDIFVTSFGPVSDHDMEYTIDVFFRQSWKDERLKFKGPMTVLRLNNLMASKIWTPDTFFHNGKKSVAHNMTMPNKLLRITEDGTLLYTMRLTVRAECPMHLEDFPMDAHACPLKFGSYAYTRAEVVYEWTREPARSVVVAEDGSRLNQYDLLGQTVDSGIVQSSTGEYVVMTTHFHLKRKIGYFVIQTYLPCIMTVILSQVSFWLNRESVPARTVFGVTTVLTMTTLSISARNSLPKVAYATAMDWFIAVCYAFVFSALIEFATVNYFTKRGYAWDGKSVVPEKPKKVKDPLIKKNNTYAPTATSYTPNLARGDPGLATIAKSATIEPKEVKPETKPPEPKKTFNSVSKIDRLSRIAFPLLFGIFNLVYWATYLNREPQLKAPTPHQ
Sequence of α1β2γ2 GABAA subtype receptor (P47870 25-512 partner limits assumed): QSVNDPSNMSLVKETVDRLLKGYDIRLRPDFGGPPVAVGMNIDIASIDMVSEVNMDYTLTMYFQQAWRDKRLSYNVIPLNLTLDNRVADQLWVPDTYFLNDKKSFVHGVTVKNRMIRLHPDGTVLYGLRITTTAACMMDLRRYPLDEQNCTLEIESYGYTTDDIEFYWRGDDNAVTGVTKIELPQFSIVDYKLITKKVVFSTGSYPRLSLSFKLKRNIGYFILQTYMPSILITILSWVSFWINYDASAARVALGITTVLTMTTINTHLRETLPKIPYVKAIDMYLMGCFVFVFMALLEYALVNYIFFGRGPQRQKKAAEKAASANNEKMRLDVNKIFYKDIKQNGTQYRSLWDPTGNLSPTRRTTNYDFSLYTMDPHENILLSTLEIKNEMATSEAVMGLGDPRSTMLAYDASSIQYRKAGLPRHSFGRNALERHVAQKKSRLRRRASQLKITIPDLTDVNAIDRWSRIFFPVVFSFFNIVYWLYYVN
Sequence of α1β2γ2 GABAA subtype receptor (P18507 40-475): as the sequence (P18507 40-475) above

Consider `O=c1c(-c2ccccc2F)nc2c[nH]c3ccccc3n1-2` [compound 2], for which the Ki in data set [1] is 10 nM. The “oocyte electrophysiology maximum potentiation (%) α1β2γ2” value in data set [2] is on record as 18%. Also, the “oocyte electrophysiology maximum potentiation (%) α2β3γ2” value in data set [3] is listed as 40%. Moreover, the “oocyte electrophysiology maximum potentiation (%) α3β3γ2” value in data set [4] is listed as 39%. Besides, the Emax in data set [5] is -11%. In addition, the “elevated plus maze, minimal efficacious dose” value (“elevated plus maze” below) in data set [6] is recorded as 0.5 mg/kg. Also, in data set [7] (in vivo, iv, 15 min), the “spontaneous locomotor activity, minimal efficacious dose” value (from here on “spontaneous locomotor activity”) was 4 mg/kg.

Take `COc1ccc(NC(=O)c2c[nH]c3c2C(=O)CC(C)(C)C3)c(F)c1` [compound 6]: the Ki in data set [1] was determined as 11 nM. In data set [2], the “oocyte electrophysiology maximum potentiation (%) α1β2γ2” value is recorded as 25%. Moreover, the “oocyte electrophysiology maximum potentiation (%) α2β3γ2” value in data set [3] is listed as 72%. The “oocyte electrophysiology maximum potentiation (%) α3β3γ2” value in data set [4] came to 95%. In data set [5], the “oocyte electrophysiology maximum potentiation (%) α5β3γ2” value stood at 42%. Further, the “spontaneous locomotor activity” value in data set [7] (setting [9]) is given as 0.25 mg/kg. The “step-down passive avoidance, minimal efficacious dose” value in data set [8] (in vivo, iv, 24 h) was 4 mg/kg.

As to `O=c1[nH]c2c(n1-c1nc3ccc(F)c(F)c3o1)CCCCC2` [compound 7], the Ki in data set [1] is 3 nM. For the same compound, the “oocyte electrophysiology maximum potentiation (%) α1β2γ2” value in data set [2] was determined as 18%. The “oocyte electrophysiology maximum potentiation (%) α2β3γ2” value in data set [3] is 51%. Moreover, in data set [4], the “oocyte electrophysiology maximum potentiation (%) α3β3γ2” value turned out to be 83%. In addition, in data set [5], the Emax is -23%. Besides, the “spontaneous locomotor activity” value in data set [7] (setting [9]) came to 0.125 mg/kg.

With `O=C(Nc1ccc(OCCO)cc1)c1c[nH]c2c1C(=O)CCC2` [compound 12], in data set [1], the Ki turned out to be 5.4 nM. For the same compound, the “oocyte electrophysiology maximum potentiation (%) α1β2γ2” value in data set [2] is given as 15%. Also, the “oocyte electrophysiology maximum potentiation (%) α2β3γ2” value in data set [3] was 63%. Also, the “oocyte electrophysiology maximum potentiation (%) α3β3γ2” value in data set [4] was found to be 82%. The Emax in data set [5] was -12%. In data set [8] (IV), the “cognitive model (step-down passive avoidance), minimal efficacious dose” value came out at 0.06 mg/kg.

On to `O=c1c2c[nH]c3ccccc3n-2c(=O)n1-c1ccc(F)cc1` [compound 10], for which the Ki in data set [1] amounted to 10 nM. Further, the Emax is 0% in data set [2] and -27% in data set [5]. In addition, the “oocyte electrophysiology maximum potentiation (%) α2β3γ2” value in data set [3] amounted to 22%. Also, the “oocyte electrophysiology maximum potentiation (%) α3β3γ2” value in data set [4] came out at 23%. Moreover, in data set [8] (IV), the “cognitive model (step-down passive avoidance), minimal efficacious dose” value worked out at 0.25 mg/kg.

For the compound `O=C(Nc1cccc(F)c1)c1c[nH]c2c(c1=O)CCC2` [compound 5], in data set [1], the Ki was found to be 8.3 nM. The Emax in data set [2] and in data set [5] was 0% each time. Also, the “oocyte electrophysiology maximum potentiation (%) α2β3γ2” value in data set [3] is recorded as 44%. Also, in data set [4], the “oocyte electrophysiology maximum potentiation (%) α3β3γ2” value is listed as 44%. For the same compound, the “elevated plus maze” value in data set [6] stood at 0.5 mg/kg.

On to `Cc1ccc(-c2nc3ccc(C)cn3c2CC(=O)N(C)C)cc1` [Zolpidem, reference compound], for which the Ki in data set [1] is 48 nM. Also, the “oocyte electrophysiology maximum potentiation (%) α1β2γ2” value in data set [2] is 263%. Besides, the “oocyte electrophysiology maximum potentiation (%) α2β3γ2” value in data set [3] was determined as 350%. In addition, the “oocyte electrophysiology maximum potentiation (%) α3β3γ2” value in data set [4] was determined as 882%. Also, the “spontaneous locomotor activity” value in data set [7] (setting [9]) is reported as 0.25 mg/kg. Also, the “step-down passive avoidance, minimal efficacious dose” value in data set [8] (IV, cognitive impairment side effect (Table VII)) worked out at 0.5 mg/kg.

As for `Cc1nnc2n1-c1ccc(Cl)cc1C(c1ccccc1)=NC2` [Alprazolam, reference compound], the Ki in data set [1] came to 3.3 nM. Besides, in data set [2], the “oocyte electrophysiology maximum potentiation (%) α1β2γ2” value was found to be 327%. Further, in data set [3], the “oocyte electrophysiology maximum potentiation (%) α2β3γ2” value is recorded as 333%. The “oocyte electrophysiology maximum potentiation (%) α3β3γ2” value in data set [4] was determined as 774%. Also, the “oocyte electrophysiology maximum potentiation (%) α5β3γ2” value in data set [5] is given as 206%. For the same compound, the “elevated plus maze” value in data set [6] came to 0.0625 mg/kg. Moreover, the “spontaneous locomotor activity” value in data set [7] (IV, sedation as side effect (Tables V and IX)) was found to be 0.125 mg/kg.

On to `c1cc2c(cc1-c1ncc3[nH]c4c(c3n1)CCCC4)OCO2` [compound 9], for which the Ki in data set [1] came to 7.8 nM. In addition, the “oocyte electrophysiology maximum potentiation (%) α1β2γ2” value in data set [2] stood at 33%. Moreover, the “oocyte electrophysiology maximum potentiation (%) α2β3γ2” value in data set [3] worked out at 53%. The “oocyte electrophysiology maximum potentiation (%) α3β3γ2” value in data set [4] is given as 23%. The Emax in data set [5] was less than 10%. The “spontaneous locomotor activity” value in data set [7] (setting [9]) stood at 0.5 mg/kg. Moreover, in data set [8] (in vivo, iv, 24 h), the “step-down passive avoidance, minimal efficacious dose” value turned out to be 0.5 mg/kg.

Consider `CC1CC(=O)c2c(C(=O)Nc3ccc(F)cc3)c[nH]c2C1` (stereo not shown) [compound 8], for which the Ki in data set [1] was found to be 24 nM. For the same compound, the “oocyte electrophysiology maximum potentiation (%) α1β2γ2” value in data set [2] was determined as 17%. Also, the “oocyte electrophysiology maximum potentiation (%) α2β3γ2” value in data set [3] was found to be 42%. For the same compound, the “oocyte electrophysiology maximum potentiation (%) α3β3γ2” value in data set [4] turned out to be 61%. In addition, in data set [5], the “oocyte electrophysiology maximum potentiation (%) α5β3γ2” value turned out to be 16%. Moreover, in data set [7] (setting [9]), the “spontaneous locomotor activity” value is on record as 0.5 mg/kg.
